# Measured values: patent US7192746B2, “α-Isomaltosyltransferase, process for producing the same and use thereof” (Kabushiki Kaisha Hayashibara Seibutsu Kagaku Kenkyujo, priority 2000, dated 2007)
# Tests used:
# [1] = system: α-isomaltosyl-transferring enzyme from Bacillus globisporus C9; test: Formation of cyclotetrasaccharide from components A, B and C; type: biochemical; conditions: Enzyme of Strain C9, 35° C., 8 hours
# Description: (§1) Using a purified α-isomaltosyl-transferring enzyme, the formation of cyclotetrasaccharide from the above-identified components A, B and C was examined as follows: One percent (w/v) of an aqueous solution (pH 6.0) of the component A (3-O-α-isomaltosylpanose represented by Chemical Formula 1), the component B (4-O-α-isomaltosylpanose represented by Chemical Formula 2), or the component C (1-O-α-isomaltosyl-β-panoside represented by Chemical Formula 3) was prepared into a substrate solution. To each of the resulting solutions was added one unit/g substrate of a purified specimen of α-isomaltosyl-transferring enzyme from Bacillus globisporus C9 obtained by the method in Experiment 4, or Bacillus globisporus C11 obtained by the method in Experiment 7, followed by enzymatic reaction at 35° C. for eight hours. Thereafter, the resulting mixtures were analyzed on HPLC for saccharide composition (%).
# [2] = system: α-isomaltosyl-transferring enzyme from Bacillus globisporus C11; test: as above; type: biochemical; conditions: Enzyme of Strain C11, 35° C., 8 hours
# Description: as §1
# [3] = 1% (w/v) substrate, pH 6.0, 1 unit/g substrate
structure (smiles),measurement,setting,value
"OC[C@H]1O[C@H](OC[C@H]2O[C@H](O[C@@H]3O[C@H](CO)[C@@H](O[C@H]4O[C@H](CO[C@H]5O[C@H](CO)[C@@H](O)[C@H](O)[C@H]5O)[C@@H](O)[C@H](O)[C@H]4O)[C@H](O)[C@H]3O)[C@H](O)[C@@H](O)[C@@H]2O)[C@H](O)[C@@H](O)[C@@H]1O [Component C, 1-O-α-isomaltosyl-β-panoside]","Saccharide composition, remaining Substrate",[1]; [3],55.8%
same,"Saccharide composition, Cyclotetrasaccharide",[1],6.0%
same,"Saccharide composition, Glucose",[1],0.2%
same,"Saccharide composition, Others",[1],38.0%
same,"Saccharide composition, remaining Substrate",[2]; [3],56.0%
same,"Saccharide composition, Cyclotetrasaccharide",[2],5.9%
same,"Saccharide composition, Glucose",[2],0.2%
same,"Saccharide composition, Others",[2],37.9%
